Here are results for four compounds from US10442767B2 (priority 2012, dated 2019).

Data set [1] has as its target T1, Shaker K^+ channel (Drosophila melanogaster, UniProt P08510).
T1 construct: injecting approximately 50 ng of WT Shaker cRNA (kit Ambion) into the oocytes; expressed in transfected cells; host or cells: Xenopus laevis oocytes (cRNA injection)
As to the kind of experiment: Inhibition of K+ currents, cut-open oocyte voltage clamp. The settings on record: for fold less potent than 4-AP: cut-open oocyte voltage clamp (Example 2); for IC50: relative K+ current at +20 mV, Xenopus oocytes, Hill fit, read-out: half-maximal inhibitory concentration (IC50). The class given is cell-based, Xenopus oocytes. The method, then: Using the cut-open oocyte voltage clamp studies to screen compounds to determine their potency towards Kv1 cannels was previously described in Starace and Bezanilla et al. (2004).
For this experiment, Shaker K^+ channel from D. […] was chosen as the archetypical voltage gated K^+ channel that gives name to the family.
Electrophysiology studies are conducted according to the protocol by Stefani and Bezanilla (1998). Briefly, K^+ channel Shaker cRNA is injected into Xenopus oocytes 24 h after their surgical extraction from adult frogs. 1-5 days after injection channel currents are recorded using the cut-open voltage-clamp.
K^+ channel expression in Xenopus oocytes membranes was achieved by injecting approximately 50 ng of WT Shaker cRNA (kit Ambion) into the oocytes 24 h after surgical extraction from adult frogs and collagenase treatment. Injected oocytes were maintained in a standard oocytes solution (100 mM NaCl, 5 mM KCl, 2 mM CaCl2, and 10 mM Hepes at pH 7.5) at 16.5° C. and recordings were performed 1-3 days after injection.
K^+ currents were recorded from oocytes expressing Shaker K^+ channels using the cut-open voltage clamp technique as described by Stefani and Bezanilla. The internal solution was 120 mM KOH, 20 mM HEPES-methyl sulfonate (MES) pH 7.4, 2 mM EGTA. The external solution was 12 mM KOH, 105 mM N-methyl-D-glucamine-MES pH 7.4, 20 mM HEPES, 2 mM CaOH. […] After application, cells were voltage-clamped at least 5 min at 0 mV, then voltage-clamped at −80 mV for 1-2 min. K^+ currents were generated by applying series of 50 ms pulses from −70 mV to +40 mV in increments of 10 mV. […] Analysis of the traces was done using an in-house software. The half-maximal inhibitory concentration (IC50) for each drug was calculated by plotting the relative K^+ current vs. concentration and fitted to the Hill equation using the software Origin.
(§1) EC50=10^<log EC50>; where <log EC50>=average of log EC50 values from all experiments with the same drug. 95% C.I.=[Upper Limit . . . Lower Limit]; where U.L.=10^(log EC50+s.d.) and L.L.=10^(log EC50−s.d.). The half-life (t1/2) in the stability and pharmacokinetic experiments was calculated by fitting the data to the equation Ct=C0*exp(−k*t) where C0=initial concentration, Ct=concentration at time t, and k=ln 2/t1/2. Student t-test was used to compare results and P<0.05 was considered significant.

In data set [2] the test system is hypomyelinated optic nerves from Shiverer mice (shi^−/−). The data set can be described thus: Compound action potential (CAP) of dissected hypomyelinated optic nerve. Type of data set: cell-based, mouse. As to conditions: for EC50: Mus musculus, hypomyelinated Shiverer optic nerve, 22 °C, Hill fit, read-out: half-maximal effective concentration (EC50) in enhancing the CAP. The procedure:
In order to determine if the drugs could also be effective in enhancing compound action potentials (CAP), the effects of these compounds on the CAP of hypomyelinated optic nerves from Shiverer mice (shi^−/−) and control mice (shi^+/−, shi^+/+) were tested. Shiverer mice lack compact myelin in the CNS due to a null mutation of the myelin basic protein gene (MBP).
optic nerves were dissected from 12-16 week old Shiverer (shi^−/−) and control mice (shi^+/− and shi^+/+). Mice were euthanized by CO2 overdose and the optic nerves were quickly dissected between the eyeball and the optic chiasm. The nerves were incubated for 30 min at 37° C. in oxygenated (95% O2, 5% CO2) aCSF solution (126 mM NaCl, 3 mM KCl, 2 mM MgSO4, 26 mM NaHCO3, 2 mMCaCl2, 10 mM dextrose, pH 7.5) before the experiment.
compound action potentials (CAP) from hypomyelinated nerves (Shiverer mice, shi^−/−) and myelinated nerves (litermate controls, shi^+/− and shi^+/+) were recorded using suction electrodes as described by Stys et al. Briefly, the dissected optic nerve was placed inside a chamber containing oxygenated (5% CO2, 95% O2) aCSF (300 μL) between two suction electrodes (stimulus and recording electrodes) forming a tight seal on each end. Two additional electrodes were placed in the bath for reference. A supramaximal pulse (250 mV, 20 μs) was applied at the stimulating end of the nerve. The resulting CAP was amplified from the recording electrode using a high impedance low-noise amplifier (EG&G Princeton Applied Research Corporation) and filtered and sampled at 10-100 kHz. […] After each measurement the chamber was washed for 5 min (flow 1 mL/min) with oxygenated aCSF. The study was conducted at 22.2±1.3° C. to allow for slower conduction and the temperature was monitored throughout the experiment. CAP recordings were acquired with a SBC6711 board (Innovative Integration) controlled by in-house written software. Analysis of the traces was done using an in-house software. The half-maximal effective concentration (EC50) for each drug was calculated by plotting the final over initial amplitude vs. concentration and fitted to the Hill equation using Origin.
as §1, with “The Hill equation used to fit the data from the voltage-clamp and the optic nerve experiments was as follows: y=y0+(yf−y0)*x^n/(k^n+x^n); where n refers to the Hill coefficient (typically 1±0.1) and k refers to EC50 or IC50. y0 and yf refers to the origin and final ordinate values and were fixed at 1±0.1 or 0±0.1 depending on the experiment. EC50=10^<log” for “EC50=10^<log”

Data set [3] concerns C57Bl/6J mice. As to the kind of experiment: In vivo effects (tremor, seizures) after intraperitoneal injection. The settings on record: for effects in mice: doses up to 20 times higher; for Effect: N = 5. On the set-up: species or system mouse. The procedure: A consequence of excessive K^+ channel blockage is the advent of seizures. 4-AP is known to cause seizures in mice at high doses.
At high doses, 4-AP causes tremors, muscle spasms and seizures.
10-week-old female C57Bl/6J mice were given an intraperitoneal injection of the drug under investigation and monitored continuously for 4 h. After 4 h no signs of drug effects could be observed. At least 72 h passed between injections to the same mice.

T1 sequence (P08510 whole entry): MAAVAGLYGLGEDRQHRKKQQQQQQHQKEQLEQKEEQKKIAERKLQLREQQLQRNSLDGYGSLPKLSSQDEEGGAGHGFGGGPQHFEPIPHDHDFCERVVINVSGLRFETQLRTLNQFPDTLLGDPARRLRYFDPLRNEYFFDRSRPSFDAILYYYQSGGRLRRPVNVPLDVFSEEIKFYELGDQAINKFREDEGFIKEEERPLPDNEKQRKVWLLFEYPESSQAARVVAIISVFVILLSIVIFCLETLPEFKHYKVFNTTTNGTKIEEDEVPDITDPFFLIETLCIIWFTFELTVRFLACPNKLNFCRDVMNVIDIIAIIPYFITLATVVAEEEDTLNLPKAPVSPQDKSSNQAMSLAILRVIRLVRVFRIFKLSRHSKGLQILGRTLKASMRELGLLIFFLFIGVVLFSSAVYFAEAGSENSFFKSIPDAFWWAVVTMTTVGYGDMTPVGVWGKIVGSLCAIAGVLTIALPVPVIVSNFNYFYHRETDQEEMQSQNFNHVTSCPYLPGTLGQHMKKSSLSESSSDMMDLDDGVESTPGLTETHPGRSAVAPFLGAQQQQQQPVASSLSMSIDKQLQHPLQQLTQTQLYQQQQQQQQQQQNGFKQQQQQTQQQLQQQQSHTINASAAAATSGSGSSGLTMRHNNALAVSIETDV

As to `Nc1ccnc(F)c1` [2-F-4-AP, 2-fluoro-4-aminopyridine], in data set [1], the “fold less potent than 4-AP” value was “at least a hundred fold-less potent” and the IC50 is over 10 mM. For the same compound, the “effect on CAP” value in data set [2] (hypomyelinated optic nerve) was “no effect”. The effects in mice entry in data set [3] is reported as “did not cause any effects”. The Effect result in data set [3] (i.p., 1920 μmol/kg) is reported as “No effect”.

For `Nc1ccncc1CCF` [3-EtF-4-AP, 3-fluoroethyl-4-aminopyridine], in data set [1], the “fold less potent than 4-AP” value is “at least a hundred fold-less potent” and the IC50 was over 10 mM.

With `Nc1ccncc1CF` [3-MeF-4-AP, 3-fluoromethyl-4-aminopyridine], in data set [1], the “fold less potent than 4-AP” value is reported as “around 10 fold” and the IC50 worked out at 7.45 mM. For the same compound, the “times less potent than 4-AP” value in data set [1] (voltage-clamp and optic nerve experiments together) is 6-20 times. In data set [2], the EC50 is 0.286 mM. Also, the Effect entry in data set [3] (i.p., 30 μmol/kg) is “No effect”. Further, the Effect entry in data set [3] (i.p., 60 μmol/kg) is “Very mild tremor. Normal after 30 min”. Further, in data set [3] (i.p., 90 μmol/kg), the “duration of effect (tremors, seizures or jerks)” value was about 45 min; the Effect result is “Tremor and occasional jerks that last ca”. Also, in data set [3] (i.p., 120 μmol/kg), the “duration of tremor and seizures” value is “min post-injection and last ca. 45 min”; the “mice died of seizure” value is 1 of 5 mice died of seizure; the “start of tremor and seizures post-injection” value turned out to be 5 min; the Effect result is “Severe tremor and seizures”. Moreover, the “in vivo potency compared with 4-AP” value in data set [3] (i.p., mice) was “slightly less potent than 4-AP”.

As to `Nc1ccncc1CO` [3-MeOH-4-AP, 3-methanol-4-aminopyridine, reference compound], the IC50 in data set [1] was found to be 4.38 mM. Besides, the EC50 in data set [2] stood at 0.386 mM. Also, the effects in mice entry in data set [3] is “did not cause any effects”. For the same compound, the Effect result in data set [3] (i.p., 960 μmol/kg) was “No effect”.
